Experimental data as given in US20250205204A1, “Transcription Factor Brn2 Inhibitory Compounds for Use as Therapeutics” (The University of British Columbia, priority 2021, published 2025).
“Also recorded” adds a separate entry of the source. Read-outs that look alike come from different tables or passages of the source.

How the values were obtained:
42D^ENZR cells = assay: Cell proliferation, BRN2 expressing 42D cells (crystal violet); type: cell-based; settings: for Growth Specificity: 42D (express BRN2) versus 16D (no BRN2) cells, result in words
Protocol: (§1) Step 3: Cell Proliferation
(§2) Plate 42DE^NZR (˜7000 cells per well) and 16D^CRPC (˜5000 cells per well) cells in 96 well plate with a volume of 100 μL per well. • 2. Next day 1 mL aliquots of media are combined with 3× the desired concentration of compounds. The aliquots are vortexed and 50 μL of each 3× concentration is added to the 100 μL of media in each well to give the ix desired concentration.
(§3) The following are the desired concentrations:
(§4) Approximately 72 hours later, 17 μL of 10% Glutaraldehyde is added to each well and plates are placed on a shaker for 20-30 minutes. • 4. Media is washed off the fixed cells by slow submersion in a container of water. Then the water is removed by tapping the plate upside down. • 5. 75 μL of Crystal Violet™ solution is added into the 96 well plates and placed on a shaker for ˜30 minutes. • 6. Media is washed off the fixed cells by repeated slow submersion in a container of water and the plates are allowed to dry over-night. • 7. Next day, 75 μL of Sorensen Solution is accurately pipetted into each well. The plates placed on a shaker for ˜30 minutes. • 8. Absorbance is measured in the plate at 590 nm.
There is a distinction in TABLES 1 and 2 difference between “Active” and “Specific” or “Specificity”.

[1] = Metabolic stability in liver microsomes (MLM); type: in vitro ADME, mice; settings: 0.25 mg/mL protein; for half-life at 1 μM: mouse, liver microsomes, pH 7.4, 1 μM compound, read-out: T1/2 in mins (MLM); for Met Stab % (60 mins) MLM: percent remaining at 60 min, 1 μM compound, 1 mM NADPH
Protocol: Preparation of Potassium Phosphate Buffer, 50 mM (pH 7.4)
Potassium phosphate buffer (Kphos) was prepared by adding 0.647 g potassium phosphate monobasic (KH2PO4) and 3.527 g potassium phosphate dibasic (KH2PO4) to 400 mL of Milli-Q™ water. pH of the buffer was adjusted to 7.4 and volume was made up to 500 mL.
Preparation of Microsomes
Stock solutions of BRN2 inhibitors were prepared in DMSO at a concentration of 1 mM
Preparation of NADPH Solution
• Total Incubation volume: 100 μL • Compound concentration: 1 μM • Protein Concentration: 0.25 mg/mL • NADPH: 1 mM • Final DMSO contain: 0.1% • Number of replicates: 2 • Time points: 0, 5, 15, 30 and 60 min
From the above mix, 70 μL was added to individual wells of 96 well reaction plates and pre-incubated in a 37° C. water bath for 5 min. […] Reactions without NADPH and buffer controls (minus NADPH) at 0 min and 60 min were also incubated to rule out non-NADPH metabolism or chemical instability in the incubation buffer. All reactions were terminated using 100 μL of ice-cold acetonitrile containing internal standard at 0, 5, 15, 30 and 60 min.
Samples were monitored for parent compounds disappearance in MRM mode using LC-MS/MS.
The percent remaining of test compounds and positive control in each sample was determined by considering peak area ratio in the 0 minute sample as 100%. The Half-life of compounds in microsomes is calculated by formula: […]
In vitro intrinsic clearance (CL'int) (units in mL/min/kg) was calculated using the formula.
[formula] • For liver microsomes, scaling factor used was 45 mg microsomal protein per gm liver. • * Indicates liver weight (gm) which varies species wise. For mice the liver weights are 90 gm.

16D^CRPC cells = assay: Cell proliferation, 16D cells that do not express BRN2 (crystal violet); type: cell-based; settings: for concentration above which 16D is affected: proliferation; for effect on 16D: result in words
Protocol: as §1, §2, §3
as §4, with “0, 10 nM, 100 nM, 500 nM, 1 μM, 2.5 μM, 5 μM, 10 μM, 15 μM, 20 μM, 30 μM. • 3. Approximately” for “Approximately”, “nm. Compounds that Show Specificity Towards 42DE^NZR Cells Vs 16D^CRPC Cells Progress to Step 4.” for “nm.”
(§5) In TABLES 1 and 2, in columns Met Stab % and T½, refers to compound's stability in MLM. There is a distinction in TABLES 1 and 2 difference between “Active” and “Specific” or “Specificity”. Some of the compounds were first tested to quantify inhibition of BRN2 transcriptional activity in a luciferase assay to determine BRN2 inhibition at 10 μM and 30 μM concentrations. […] Generally, compounds having low inhibitory activity were compounds with less than about ˜30% or activation at either concentration (i.e. 10 μM or 30 μM). Furthermore, some compounds that lacked specificity could also show off-target effects.

BRN2 = target: T1, BRN2 (Homo sapiens, UniProt P20265); assay: BLI binding; settings: result in words
T1 sequence (P20265 1-443): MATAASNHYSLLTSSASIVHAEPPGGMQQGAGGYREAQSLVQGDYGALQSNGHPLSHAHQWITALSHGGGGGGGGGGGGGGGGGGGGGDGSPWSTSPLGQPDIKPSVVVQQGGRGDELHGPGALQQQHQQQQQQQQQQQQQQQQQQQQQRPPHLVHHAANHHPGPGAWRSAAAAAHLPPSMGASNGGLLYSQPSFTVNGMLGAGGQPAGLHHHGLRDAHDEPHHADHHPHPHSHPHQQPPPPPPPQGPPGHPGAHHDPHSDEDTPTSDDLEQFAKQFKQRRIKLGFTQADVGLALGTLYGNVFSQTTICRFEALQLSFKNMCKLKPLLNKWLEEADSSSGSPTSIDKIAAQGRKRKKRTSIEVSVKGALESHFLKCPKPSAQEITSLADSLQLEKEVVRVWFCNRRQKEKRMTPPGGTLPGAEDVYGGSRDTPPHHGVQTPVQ

[2] = test system: BRN2 transcriptional activity; assay: BRN2-luciferase reporter activity in 42D^ENZR cells; type: cell-based; settings: 24 hours
From the text: Step 1: Reporter Activity
Decreased expression of luciferase protein is validated via western blot to confirm downregulation and avoid false positive molecules that inhibit luciferase protein activity and not BRN2-drive luciferase expression. Molecules are prioritized by their inhibition potency to measure direct interaction with BRN2 in Step 2.
as §5

[3] = 42D cells, proliferation, about 72 hours, read-out: 42D IC50

half-life at 1 μM [1] | Met Stab % (60 mins) MLM [1] | BLI binding (BRN2) | SMILES | Growth Specificity (42D^ENZR cells; about 72 hours) | concentration above which 16D is affected (16D^CRPC cells) | IC50 (42D^ENZR cells; [3]) | effect on 16D (16D^CRPC cells) | inhibition at 10 µM [2] | inhibition at 30 µM [2] | IC50 (42D^ENZR cells; read-out: IC50 (effective on both 42D and 16D cells))
17 min | 6% | Positive binding | CC(C)Oc1ccc2c(c1)C(=O)/C(=N\Nc1nc3ccccc3s1)C2 [7-74, (Z)-2-(2-(benzo[d]thiazol-2-yl)hydrazineylidene)-6-isopropoxy-2,3-dihydro-1H-inden-1-one] | Specific to 42D at low doses | > 20 µM | – | – | – | – | –
26 min | 19% | Positive binding | CC(C)Oc1ccc2c(c1)C/C(=N/Nc1nc3ccccc3s1)C2=O [7-73, (Z)-2-(2-(benzo[d]thiazol-2-yl)hydrazineylidene)-5-isopropoxy-2,3-dihydro-1H-inden-1-one] | Specific to 42D at low doses | > 15 µM | – | – | – | – | –
6 min | 0% | – | Fc1cccc2nc(N/N=C3/CCc4ccccc43)sc12 [7-65] | Specific to 42D | – | 10 µM | no effect on 16D | – | – | –
17 min | 8% | – | O=C1/C(=N\Nc2nc3ccccc3s2)Cc2ccc(Cl)cc21 [7-72] | Specific to 42D at low doses | > 15 µM | – | – | – | – | –
– | – | – | c1ccc2c(c1)CC/C2=N\Nc1nc2ccccc2s1 [VPC-7] | 42D not 16D | – | – | – | 82.1% | 97.8% | –
8 min | 0% | Positive | Fc1ccc2c(c1)CC/C2=N/Nc1nc2ccccc2s1 [7-57] | Specific to 42D | – | 10 µM | no effect on 16D | – | – | –
44 min | 36% | No binding | O=C1/C(=N\Nc2nc3ccccc3s2)Cc2c(Cl)cccc21 [7-125] | specific | – | – | – | – | – | –
24 min | 17% | No binding | Nc1ccc2c(c1)C/C(=N/Nc1nc3ccccc3s1)C2=O [7-120] | Not specific | – | – | – | – | – | –
32 min | 25% | No binding | COC(=O)c1ccc2c(c1)C(=O)/C(=N\Nc1nc3ccccc3s1)C2 [7-110] | No activity | – | – | – | – | – | –
23 min | 9% | Positive | O=C1C/C(=N/Nc2nc3ccccc3s2)c2ccccc21 [7-52] | effective on both 42D and 16D cells | – | – | – | – | – | 3 to 7 µM
– | – | – | c1ccc2c(c1)CC/C2=N\Nc1nc2ccccc2[nH]1 [VPC-8] | 42D and 16D non-specific | – | – | – | 84.5% | 96.1% | –
> 60 min | 50% | Positive binding | O=C1/C(=N\Nc2nc3ccccc3s2)Cc2cc(Br)ccc21 [7-94] | Specific to 42D | – | ~2 µM | – | – | – | –
15 min | 6% | No binding | O=C1/C(=N\Nc2nc3ccccc3s2)Cc2cc(N3CCC3)ccc21 [7-113] | precipitates | – | – | – | – | – | –
22 min | 26% | Positive binding | O=C1/C(=N\Nc2nc3ccccc3s2)Cc2ccc(F)cc21 [7-81, (Z)-2-(2-(benzo[d]thiazol-2-yl)hydrazineylidene)-6-fluoro-2,3-dihydro-1H-inden-1-one] | Specific to 42D | – | – | – | – | – | –
44 min | 40% | No binding | CN1/C(=N/Nc2nc3ccccc3s2)C(=O)c2ccccc21 [7-114] | precipitates | – | – | – | – | – | –
31 min | 22% | inconclusive, needs to be repeated | Cc1ccc2c(c1)C/C(=N/Nc1nc3ccccc3s1)C2=O [7-96] | Specific but weak | – | ~15 µM | – | – | – | –
> 60 min | 68% | Positive binding | O=C1/C(=N\Nc2nc3ccccc3s2)Cc2cc(C(F)(F)F)ccc21 [7-108] | Specific to 42D cells until 10 μM; also recorded: Specific to 42D cells up to 10 μM | > 15 µM | – | – | – | – | –
8 min | 1% | – | c1ccc2sc(N/N=C3/CCc4ccncc43)nc2c1 [7-66] | Specific to 42D | – | 10 µM | no effect on 16D | – | – | –
> 60 min | 69% | Positive binding | O=C1/C(=N\Nc2nc3ccccc3s2)Nc2ccccc21 [7-95] | Specific but weak | – | ~15 µM | – | – | – | –
7 min | 2% | No binding | CN1C(=O)/C(=N/Nc2nc3ccccc3s2)c2ccccc21 [7-115] | Not specific | – | – | – | – | – | –
47 min | 35% | Positive binding | O=C1/C(=N\Nc2nc3ccccc3s2)Cc2cc(Cl)ccc21 [7-71, (Z)-2-(2-(benzo[d]thiazol-2-yl)hydrazineylidene)-5-chloro-2,3-dihydro-1H-inden-1-one] | Specific to 42D but weak | – | ~15 µM | – | – | – | –
32 min | 26% | No binding | O=C1/C(=N\Nc2nc3ccccc3s2)Cc2cc(N3CCCCC3)ccc21 [7-112] | Not specific | – | – | – | – | – | –
